Tests used:
Assay in all cases: relative viability (nuclei count vs DMSO), 5 days (fraction); higher = more cells survive
[1] = compound: C1=CC=C(C(=C1)C2=CC=C(C=C2)C3=CSC4=C3C(=C(C(=O)N4)C#N)O)O + Cc1cc(Nc2cc(N3CCN(C)CC3)nc(Sc3ccc(NC(=O)C4CC4)cc3)n2)n[nH]1 [Tozasertib] (partner 0.1 µM)
Procedure, shortened: (§1)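 Lung cancer cell lines, seeded in 1536-well plates, were treated the following day by pin tool with a single drug or with five library-drug doses (not always all listed) in √10 steps on top of a fixed anchor-drug dose. Cells were fixed and nuclei stained in one step after 5 days, and nuclei were counted. Relative viability is the nuclei count for treated wells divided by that for vehicle wells, reported as medians of duplicate plates.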

[2] = compound: C1=CC=C(C(=C1)C2=CC=C(C=C2)C3=CSC4=C3C(=C(C(=O)N4)C#N)O)O + COc1cc2c(Oc3ccc(NC(=O)C4(C(=O)Nc5ccc(F)cc5)CC4)cc3F)ccnc2cc1OCCCN1CCOCC1 [Foretinib] (partner 0.25 µM)
Procedure, shortened: as §1

[3] = compound: C1=CC=C(C(=C1)C2=CC=C(C=C2)C3=CSC4=C3C(=C(C(=O)N4)C#N)O)O + CC(=O)Nc1cccc(-n2c(=O)n(C3CC3)c(=O)c3c(Nc4ccc(I)cc4F)n(C)c(=O)c(C)c32)c1 [Trametinib] (partner 0.02 µM)
Procedure, shortened: as §1

[4] = compound: O=C(CCCCCCNC(=O)c1cnc(N(c2ccccc2)c2ccccc2)nc1)NO [Ricolinostat] + COc1cc2c(Oc3ccc(NC(=O)C4(C(=O)Nc5ccc(F)cc5)CC4)cc3F)ccnc2cc1OCCCN1CCOCC1 [Foretinib] (partner 0.25 µM)
Procedure, shortened: as §1

Cell Line | relative viability ([1]; first compound 0.08 µM) | relative viability ([1]; first compound 0.253 µM) | relative viability ([1]; first compound 0.8 µM) | relative viability ([1]; first compound 2.53 µM) | relative viability ([1]; first compound 8 µM) | relative viability ([2]; first compound 0.08 µM) | relative viability ([2]; first compound 0.253 µM) | relative viability ([2]; first compound 0.8 µM) | relative viability ([2]; first compound 2.53 µM) | relative viability ([2]; first compound 8 µM) | relative viability ([3]; first compound 0.08 µM) | relative viability ([3]; first compound 0.253 µM) | relative viability ([3]; first compound 0.8 µM) | relative viability ([3]; first compound 2.53 µM) | relative viability ([3]; first compound 8 µM) | relative viability ([4]; first compound 0.08 µM) | relative viability ([4]; first compound 0.253 µM) | relative viability ([4]; first compound 0.8 µM) | relative viability ([4]; first compound 2.53 µM)
NCI-H460 | 0.395 | 0.429 | 0.345 | 0.461 | 0.296 | 1.18 | 1.11 | 0.972 | 1 | 0.569 | 0.0954 | 0.101 | 0.201 | 0.108 | 0.151 | 0.972 | 0.927 | 1.04 | 1.04
NCI-H520 | 0.409 | 0.417 | 0.432 | 0.367 | 0.441 | 0.515 | 0.711 | 0.835 | 0.848 | 0.627 | 0.5 | 0.733 | 0.779 | 0.613 | 0.443 |  | 0.889 | 0.89 | 0.688
NCI-H596 | 0.888 | 0.724 | 1.09 | 0.89 | 0.655 | 1.01 | 0.783 | 0.79 | 1.03 | 0.824 | 0.73 | 0.827 | 0.891 | 0.695 | 0.747 | 0.922 | 0.825 | 0.857 | 0.924
NCI-H647 | 0.2 | 0.608 | 0.366 | 0.314 | 0.246 | 1.21 | 1.22 | 1.32 | 1.41 | 0.963 |  | 0.422 | 0.57 | 0.493 | 0.25 | 1 | 1 | 1.01 | 1.02
NCI-H650 | 0.62 | 0.821 | 0.637 | 0.837 | 0.683 | 1.11 | 1.07 | 0.952 | 1.04 | 1.05 | 1.11 | 1.01 | 0.991 | 1.02 | 0.987 | 0.957 | 0.997 | 0.872 | 0.8
NCI-H661 | 0.359 | 0.386 | 0.357 | 0.356 | 0.369 | 1.3 | 1.06 | 0.898 | 1.02 | 0.99 | 0.5 | 0.573 | 0.603 | 0.569 | 0.501 | 0.849 | 0.983 | 1 | 0.81
NCI-H727 | 0.537 | 0.604 | 0.762 | 0.702 | 0.53 | 1.26 | 0.97 | 1.27 | 0.789 | 0.843 | 0.39 | 0.373 | 0.384 | 0.423 | 0.331 | 0.746 | 0.741 | 0.948 | 0.884
NCI-H838 | 0.264 | 0.271 | 0.285 | 0.309 | 0.268 | 1.06 | 0.981 | 1.05 | 0.954 | 0.91 | 0.488 | 0.485 | 0.654 | 0.456 | 0.331 | 0.9 | 1.07 | 1.06 | 0.941
NCI-H1355 | 0.478 | 0.516 | 0.547 | 0.518 | 0.476 | 0.895 | 1.01 | 1.12 | 0.951 | 0.703 | 0.484 | 0.495 | 0.416 | 0.432 | 0.454 | 0.953 | 0.978 | 0.976 | 0.873
NCI-H1395 | 0.666 | 0.843 | 0.804 | 0.716 | 0.772 | 0.867 | 0.964 | 0.991 | 1.01 | 1 |  | 1.02 | 0.974 | 0.938 | 1.01 |  | 0.954 | 1.07 | 1.06
NCI-H1437 | 0.367 | 0.409 | 0.44 | 0.438 | 0.382 | 1.24 | 1.32 | 1.36 | 1.37 | 1.1 | 0.485 | 0.606 | 0.534 | 0.518 | 0.298 | 1.12 | 1.28 | 1.17 | 1.05
NCI-H1650 | 0.325 | 0.386 | 0.417 | 0.442 | 0.486 | 0.795 | 1.52 | 1.31 | 1.22 | 0.935 | 0.639 | 0.495 | 0.524 | 0.597 | 0.42 | 1.17 | 1.05 | 0.886 | 0.635
NCI-H1651 | 0.819 | 0.714 | 0.792 | 0.716 | 0.607 | 0.848 | 0.774 | 0.924 | 0.76 | 0.714 | 0.895 | 0.875 | 0.809 | 0.858 | 0.677 | 0.852 | 0.812 | 0.746 | 0.776
NCI-H1666 | 0.556 | 0.658 | 0.577 | 0.598 | 0.553 | 1 | 0.976 | 0.95 | 1.01 | 0.916 | 0.819 | 1.13 | 0.935 | 0.861 | 0.803 | 0.967 | 1.01 | 1.02 | 0.914
NCI-H1734 | 0.266 | 0.238 | 0.279 | 0.288 | 0.216 | 0.783 | 0.803 | 0.899 | 0.971 | 0.738 | 0.57 | 0.666 | 0.728 | 0.669 | 0.559 | 0.728 | 0.85 | 0.915 | 0.926
NCI-H1755 | 0.735 | 0.571 | 0.544 | 0.629 | 0.728 | 0.966 | 0.924 | 0.89 | 0.929 | 0.95 | 0.758 | 0.775 | 0.8 | 0.862 | 0.797 | 0.853 | 0.925 | 0.903 | 0.91
NCI-H1793 | 0.374 | 0.331 | 0.354 | 0.337 | 0.34 | 0.623 | 0.673 | 0.691 | 0.595 | 0.555 | 0.354 | 0.738 | 0.428 | 0.446 | 0.34 |  | 0.737 | 0.741 | 0.876

Reference: the supplement of paper PMC10307832
